Literature values in patent US10765646B2, “Methods of treating developmental encephalopathies” (Ovid Therapeutics Inc., priority 2017, dated 2020).

Assays:
NMDA receptor = conditions: noncompetitive NMDA receptor antagonist
[1] = estimated
[2] = relative to ketamine
[3] = 5 mg (±)-ketamine i.v. infusion (30 min), single dose, fasting, healthy subjects, serum

Row | SMILES | Ki (NMDA receptor) [µM] | elimination half-life [1] [h] | further results
1 | N[C@]1(c2ccccc2Cl)CCCCC1=O [(S)-(+)-norketamine] | 1.7 | – | –
2 | NC1(c2ccccc2Cl)CCCCC1=O (racemic) [norketamine, (R,S)-2-(2-chlorophenyl)-2-(amino)cyclohexanone] | – | 4 | times less potent as an anesthetic in comparison (with ketamine) [2]: 3-5 times
3 | CNC1(c2ccccc2Cl)CCCCC1=O (racemic) [ketamine, (R,S)-2-(2-chlorophenyl)-2-(methylamino)cyclohexanone] | – | 2 to 3 | AUC0-∞ of (±)-ketamine [3]: 59.9 ± 13.2 ng·h/mL; Cmax of (±)-ketamine [3]: 33.7 ± 9.74 ng/mL; T1/2 (apparent terminal half-life) of (±)-ketamine [3]: 6.99 ± 5.22 h
4 | N[C@@]1(c2ccccc2Cl)CCCCC1=O [(R)-(−)-norketamine] | 13 | – | –
